Experimental data published in PubChem BioAssay AID270 (DTP/NCI, 2004).
“And” between values parts separate entries of the source, which are not always exact repeats. Equal values may be shown once. Inconclusive results are not listed.

System: BDF1 mice, s.c. Lewis lung carcinoma, T/C %
Assay: NCI In Vivo Anticancer Drug Screen. Data for tumor model Lewis Lung Carcinoma (subcutaneous) in B6D2F1 (BDF1) mice
Outline: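 The value reflects a ratio in which the treated cohort's survival time or tumour size is compared against mice receiving only vehicle.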

## Nc1nc(N)c(N=O)c(Nc2ccc(Cl)c(Cl)c2)n1
endpoint: mean tumor weight, dose: 100.0 mg/kg/injection, schedule: Q01DX011 (ip), vehicle: carboxymethylcellulose (CMC), higher = larger tumour
  T/C: 23 % of control and 32 % of control
endpoint: mean tumor weight, dose: 200.0 mg/kg/injection, schedule: Q01DX011 (ip), vehicle: carboxymethylcellulose (CMC), higher = larger tumour
  T/C: 31 % of control and 52 % of control
endpoint: mean tumor weight, dose: 400.0 mg/kg/injection, schedule: Q01DX011 (ip), vehicle: carboxymethylcellulose (CMC), higher = larger tumour
  T/C: 32 % of control and 46 % of control

## C#C[C@]1(O)CC[C@H]2[C@@H]3CCc4cc(O)ccc4[C@H]3CC[C@@]21C
endpoint: median survival time, dose: 1.25 mg/kg/injection, schedule: Q02DX009 (ip), vehicle: Klucel (hydroxypropylcellulose) (HPC), higher = longer survival
  T/C: 88 % of control
endpoint: median survival time, dose: 2.5 mg/kg/injection, schedule: Q02DX009 (ip), vehicle: Klucel (hydroxypropylcellulose) (HPC), higher = longer survival
  T/C: 92 % of control
endpoint: median survival time, dose: 5.0 mg/kg/injection, schedule: Q02DX009 (ip), vehicle: Klucel (hydroxypropylcellulose) (HPC), higher = longer survival
  T/C: 96 % of control
endpoint: median survival time, dose: 10.0 mg/kg/injection, schedule: Q02DX009 (ip), vehicle: Klucel (hydroxypropylcellulose) (HPC), higher = longer survival
  T/C: 91 % of control and 101 % of control
endpoint: median survival time, dose: 20.0 mg/kg/injection, schedule: Q02DX009 (ip), vehicle: Klucel (hydroxypropylcellulose) (HPC), higher = longer survival
  T/C: 104 % of control
endpoint: median survival time, dose: 40.0 mg/kg/injection, schedule: Q02DX009 (ip), vehicle: Klucel (hydroxypropylcellulose) (HPC), higher = longer survival
  T/C: 108 % of control and 120 % of control

## C=CC(=O)NCNC(=O)C=C
endpoint: mean tumor weight, dose: 44.0 mg/kg/injection, schedule: Q01DX011 (ip), vehicle: saline, higher = larger tumour
  T/C: 101 % of control
endpoint: mean tumor weight, dose: 66.0 mg/kg/injection, schedule: Q01DX011 (ip), vehicle: saline, higher = larger tumour
  T/C: 48 % of control
endpoint: mean tumor weight, dose: 100.0 mg/kg/injection, schedule: Q01DX011 (ip), vehicle: saline, higher = larger tumour
  T/C: 56 % of control

## CC(C)NCC(=O)c1ccc(O)c(O)c1
endpoint: median survival time, dose: 5.0 mg/kg/injection, schedule: Q01DX009 (ip), vehicle: saline, higher = longer survival
  T/C: 107 % of control
endpoint: median survival time, dose: 10.0 mg/kg/injection, schedule: Q01DX009 (ip), vehicle: saline, higher = longer survival
  T/C: 114 % of control
endpoint: median survival time, dose: 20.0 mg/kg/injection, schedule: Q01DX009 (ip), vehicle: saline, higher = longer survival
  T/C: 114 % of control
endpoint: median survival time, dose: 40.0 mg/kg/injection, schedule: Q01DX009 (ip), vehicle: saline, higher = longer survival
  T/C: 111 % of control

## Nc1nc(N)c2nc(CN(CCO)c3ccc(C(=O)NC(CCC(=O)O)C(=O)O)cc3)cnc2n1 (stereo not given)
endpoint: median survival time, dose: 0.25 mg/kg/injection, schedule: Q01DX009 (ip), vehicle: Klucel (hydroxypropylcellulose) (HPC), higher = longer survival
  T/C: 96 % of control
endpoint: median survival time, dose: 0.5 mg/kg/injection, schedule: Q01DX009 (ip), vehicle: Klucel (hydroxypropylcellulose) (HPC), higher = longer survival
  T/C: 107 % of control
endpoint: median survival time, dose: 1.0 mg/kg/injection, schedule: Q01DX009 (ip), vehicle: Klucel (hydroxypropylcellulose) (HPC), higher = longer survival
  T/C: 108 % of control
endpoint: median survival time, dose: 2.0 mg/kg/injection, schedule: Q01DX009 (ip), vehicle: Klucel (hydroxypropylcellulose) (HPC), higher = longer survival
  T/C: 89 % of control

## c1cc[c]([Sn]([S][Sn]([c]2ccccc2)([c]2ccccc2)[c]2ccccc2)([c]2ccccc2)[c]2ccccc2)cc1
endpoint: median survival time, dose: 50.0 mg/kg/injection, schedule: Q01DX009 (ip), vehicle: saline with Tween-80, higher = longer survival
  T/C: 91 % of control
endpoint: median survival time, dose: 100.0 mg/kg/injection, schedule: Q01DX009 (ip), vehicle: saline with Tween-80, higher = longer survival
  T/C: 93 % of control
endpoint: median survival time, dose: 200.0 mg/kg/injection, schedule: Q01DX009 (ip), vehicle: saline with Tween-80, higher = longer survival
  T/C: 102 % of control

## CC(C)Sc1nc(N)nc2nc[nH]c12
endpoint: mean tumor weight, dose: 12.5 mg/kg/injection, schedule: Q01DX011 (ip), vehicle: other, higher = larger tumour
  T/C: 75 % of control
endpoint: mean tumor weight, dose: 25.0 mg/kg/injection, schedule: Q01DX011 (ip), vehicle: other, higher = larger tumour
  T/C: 95 % of control
endpoint: mean tumor weight, dose: 50.0 mg/kg/injection, schedule: Q01DX011 (ip), vehicle: other, higher = larger tumour
  T/C: 67 % of control
endpoint: mean tumor weight, dose: 100.0 mg/kg/injection, schedule: Q01DX011 (ip), vehicle: other, higher = larger tumour
  T/C: 48 % of control and 62 % of control
endpoint: mean tumor weight, dose: 200.0 mg/kg/injection, schedule: Q01DX011 (ip), vehicle: other, higher = larger tumour
  T/C: 52 % of control
endpoint: mean tumor weight, dose: 400.0 mg/kg/injection, schedule: Q01DX011 (ip), vehicle: other, higher = larger tumour
  T/C: 30 % of control

## CC1OC(=O)C(C(C)C)NC(=O)C(C(C)C)OC(=O)C(C(C)C)NC(=O)C(C)OC(=O)C(C(C)C)NC(=O)C(C(C)C)OC(=O)C(C(C)C)NC(=O)C(C)OC(=O)C(C(C)C)NC(=O)C(C(C)C)OC(=O)C(C(C)C)NC1=O (stereo not given)
endpoint: median survival time, dose: 0.31 mg/kg/injection, schedule: Q01DX009 (ip), vehicle: saline with Tween-80, higher = longer survival
  T/C: 100 % of control
endpoint: median survival time, dose: 0.62 mg/kg/injection, schedule: Q01DX009 (ip), vehicle: saline with Tween-80, higher = longer survival
  T/C: 103 % of control
endpoint: median survival time, dose: 0.75 mg/kg/injection, schedule: Q01DX009 (ip), vehicle: Klucel (hydroxypropylcellulose) (HPC), higher = longer survival
  T/C: 94 % of control
endpoint: median survival time, dose: 1.25 mg/kg/injection, schedule: Q01DX009 (ip), vehicle: saline with Tween-80, higher = longer survival
  T/C: 109 % of control
endpoint: median survival time, dose: 1.5 mg/kg/injection, schedule: Q01DX009 (ip), vehicle: Klucel (hydroxypropylcellulose) (HPC), higher = longer survival
  T/C: 86 % of control
endpoint: median survival time, dose: 2.5 mg/kg/injection, schedule: Q01DX009 (ip), vehicle: saline with Tween-80, higher = longer survival
  T/C: 86 % of control
endpoint: median survival time, dose: 3.0 mg/kg/injection, schedule: Q01DX009 (ip), vehicle: Klucel (hydroxypropylcellulose) (HPC), higher = longer survival
  T/C: 101 % of control
endpoint: median survival time, dose: 6.0 mg/kg/injection, schedule: Q01DX009 (ip), vehicle: Klucel (hydroxypropylcellulose) (HPC), higher = longer survival
  T/C: 100 % of control
endpoint: median survival time, dose: 8.0 mg/kg/injection, schedule: Q01DX009 (ip), vehicle: saline with Tween-80, higher = longer survival
  T/C: 114 % of control
endpoint: median survival time, dose: 12.0 mg/kg/injection, schedule: Q01DX009 (ip), vehicle: saline with Tween-80, higher = longer survival
  T/C: 112 % of control
endpoint: median survival time, dose: 15.0 mg/kg/injection, schedule: Q04DX003 (ip), vehicle: saline with Tween-80, higher = longer survival
  T/C: 106 % of control
endpoint: median survival time, dose: 20.0 mg/kg/injection, schedule: Q01DX001 (ip), vehicle: saline with Tween-80, higher = longer survival
  T/C: 123 % of control
endpoint: median survival time, dose: 20.0 mg/kg/injection, schedule: Q04DX003 (ip), vehicle: saline with Tween-80, higher = longer survival
  T/C: 112 % of control
endpoint: median survival time, dose: 30.0 mg/kg/injection, schedule: Q01DX001 (ip), vehicle: saline with Tween-80, higher = longer survival
  T/C: 112 % of control
endpoint: median survival time, dose: 30.0 mg/kg/injection, schedule: Q04DX003 (ip), vehicle: saline with Tween-80, higher = longer survival
  T/C: 115 % of control
endpoint: median survival time, dose: 45.0 mg/kg/injection, schedule: Q01DX001 (ip), vehicle: saline with Tween-80, higher = longer survival
  T/C: 119 % of control

## Nc1ccc2ccccc2c1N=Nc1ccccc1
endpoint: mean tumor weight, dose: 500.0 mg/kg/injection, schedule: Q01DX011 (ip), vehicle: other, higher = larger tumour
  T/C: 105 % of control
endpoint: median survival time, dose: 50.0 mg/kg/injection, schedule: Q01DX009 (ip), vehicle: Klucel (hydroxypropylcellulose) (HPC), higher = longer survival
  T/C: 104 % of control
endpoint: median survival time, dose: 100.0 mg/kg/injection, schedule: Q01DX009 (ip), vehicle: Klucel (hydroxypropylcellulose) (HPC), higher = longer survival
  T/C: 104 % of control
endpoint: median survival time, dose: 200.0 mg/kg/injection, schedule: Q01DX009 (ip), vehicle: Klucel (hydroxypropylcellulose) (HPC), higher = longer survival
  T/C: 98 % of control
endpoint: median survival time, dose: 400.0 mg/kg/injection, schedule: Q01DX009 (ip), vehicle: Klucel (hydroxypropylcellulose) (HPC), higher = longer survival
  T/C: 95 % of control

## CC1=CC2=C(C=O)C(=O)[C@](C)(O)[C@@H](O)C2=CO1
endpoint: median survival time, dose: 1.56 mg/kg/injection, schedule: Q01DX009 (ip), vehicle: saline with Tween-80, higher = longer survival
  T/C: 115 % of control
endpoint: median survival time, dose: 3.13 mg/kg/injection, schedule: Q01DX009 (ip), vehicle: saline with Tween-80, higher = longer survival
  T/C: 153 % of control
endpoint: median survival time, dose: 6.25 mg/kg/injection, schedule: Q01DX009 (ip), vehicle: saline with Tween-80, higher = longer survival
  T/C: 89 % of control and 120 % of control
endpoint: median survival time, dose: 12.5 mg/kg/injection, schedule: Q01DX009 (ip), vehicle: saline with Tween-80, higher = longer survival
  T/C: 109 % of control
endpoint: median survival time, dose: 25.0 mg/kg/injection, schedule: Q01DX009 (ip), vehicle: saline with Tween-80, higher = longer survival
  T/C: 106 % of control

## CC(=O)OC(C)(C)/C=C/C(=O)[C@](C)(O)[C@H]1[C@H](O)C[C@@]2(C)[C@@H]3CC=C4[C@@H](C[C@H](O)C(=O)C4(C)C)[C@]3(CO)C(=O)C[C@]12C
endpoint: mean tumor weight, dose: 0.57 mg/kg/injection, schedule: Q01DX011 (ip), vehicle: saline, higher = larger tumour
  T/C: 93 % of control

## CN(Cc1cnc2nc(N)nc(N)c2n1)c1c(Cl)cc(C(=O)NC(CCC(=O)O)C(=O)O)cc1Cl (stereo not given)
endpoint: median survival time, dose: 90.0 mg/kg/injection, schedule: Q01DX009 (ip), vehicle: sodium bicarbonate, higher = longer survival
  T/C: 110 % of control
endpoint: median survival time, dose: 560.0 mg/kg/injection, schedule: Q04DX003 (ip), vehicle: sodium bicarbonate, higher = longer survival
  T/C: 112 % of control
endpoint: median survival time, dose: 626.0 mg/kg/injection, schedule: Q01DX001 (ip), vehicle: sodium bicarbonate, higher = longer survival
  T/C: 116 % of control
endpoint: median survival time, dose: 840.0 mg/kg/injection, schedule: Q04DX003 (ip), vehicle: sodium bicarbonate, higher = longer survival
  T/C: 108 % of control
endpoint: median survival time, dose: 933.0 mg/kg/injection, schedule: Q01DX001 (ip), vehicle: sodium bicarbonate, higher = longer survival
  T/C: 92 % of control
endpoint: median survival time, dose: 1400.0 mg/kg/injection, schedule: Q01DX001 (ip), vehicle: sodium bicarbonate, higher = longer survival
  T/C: 100 % of control

## Oc1ccccc1/C=N/NC(=S)NC1CC2C=CC1C2 (stereo not given)
endpoint: median survival time, dose: 12.5 mg/kg/injection, schedule: Q01DX009 (ip), vehicle: olive oil, sesame oil, peanut oil, higher = longer survival
  T/C: 94 % of control
endpoint: median survival time, dose: 100.0 mg/kg/injection, schedule: Q01DX009 (ip), vehicle: olive oil, sesame oil, peanut oil, higher = longer survival
  T/C: 91 % of control
endpoint: median survival time, dose: 200.0 mg/kg/injection, schedule: Q01DX009 (ip), vehicle: olive oil, sesame oil, peanut oil, higher = longer survival
  T/C: 87 % of control
